Assay [1] addresses Integrase (Human immunodeficiency virus 1). In words: Concentration required to inhibit catalytic activity of human immuno deficiency virus type 1 integrase.
Assay [2] shares this target. In words: Inhibitory concentration against human immuno deficiency virus type 1 integrase (Strand Transfer).
Assay [3] shares this target. Kind of assay: Inhibitory concentration against human immuno deficiency virus type 1 integrase (3'-processing).

Consider 12 compounds from BindingDB's records for doi:10.1021/jm0496077 (University of Southern California, 2005).

SMILES strings stand for the structures.

For the compound `O=C(/C=C(\O)c1ccc(Cc2ccc(F)cc2)o1)c1cc[nH]c1`, the IC50 in assay [1] was less than 1 µM.
Regarding `Cc1ccc2nc(C(C#N)=Cc3ccc(-c4ccc(O)c(C(=O)O)c4)o3)[nH]c2c1` [5-{5-[(E)-2-Cyano-2-(5-methyl-1H-benzoimidazol-2-yl)-vinyl]-furan-2-yl}-2-hydroxy-benzoic acid], the values for the IC50 in assay [2] and in assay [3] were 8 µM and 16 µM, respectively.
Consider `Cc1ccc(/C=C2\SC(=S)N(CC(=O)Nc3ccc([N+](=O)[O-])cc3O)C2=O)cc1` [N-(2-Hydroxy-4-nitro-phenyl)-2-{4-oxo-2-thioxo-5-[1-p-tolyl-meth-(Z)-ylidene]-thiazolidin-3-yl}-acetamide], for which the IC50 in assay [2] and in assay [3] was greater than 100 µM throughout.
Regarding `Cc1ccc(/C=C2\SC(=S)N(CC(=O)Nc3cc([N+](=O)[O-])ccc3O)C2=O)cc1` [N-(2-Hydroxy-5-nitro-phenyl)-2-{4-oxo-2-thioxo-5-[1-p-tolyl-meth-(Z)-ylidene]-thiazolidin-3-yl}-acetamide], the IC50 worked out at 80 µM in assay [2] and 84 µM in assay [3].
For `O=C(CCN1C(=O)/C(=C/c2cccs2)SC1=S)Nc1cccc(O)c1` [N-(3-Hydroxy-phenyl)-3-{4-oxo-5-[1-thiophen-2-yl-meth-(Z)-ylidene]-2-thioxo-thiazolidin-3-yl}-propionamide], the IC50 in assay [2] and in assay [3] was greater than 100 µM throughout.
Consider `O=C(CN1C(=O)/C(=C2\SC(=S)N(CC(=O)Nc3ccc(O)cc3)C2=O)SC1=S)Nc1ccc(O)cc1` [N-(4-Hydroxy-phenyl)-2-{(E)-3''-[(4-hydroxy-phenylcarbamoyl)-methyl]-4,4''-dioxo-2,2''-dithioxo-[5,5'']bithiazolidinyliden-3-yl}-acetamide], for which the IC50 was found to be 69 µM in assay [2] and 59 µM in assay [3].
Turning to `COc1ccccc1/C=C1/SC(=S)N(CCC(=O)Nc2ccc(O)cc2)C1=O` [N-(4-Hydroxy-phenyl)-3-{5-[1-(2-methoxy-phenyl)-meth-(E)-ylidene]-4-oxo-2-thioxo-thiazolidin-3-yl}-propionamide], the IC50 in assay [2] came out at 100 µM; in assay [3] it was 99 µM.
The matching figures for `COc1cc(/C=C2\SC(=S)N(CC(=O)Nc3cc(Cl)ccc3O)C2=O)cc(OC)c1OC` [N-(5-Chloro-2-hydroxy-phenyl)-2-{4-oxo-2-thioxo-5-[1-(3,4,5-trimethoxy-phenyl)-meth-(Z)-ylidene]-thiazolidin-3-yl}-acetamide]: 17 µM and 32 µM.
The matching figures for `O=C(CCN1C(=O)/C(=C/c2ccc3c(c2)OCO3)SC1=S)Nc1ccc2c(c1)OCO2` [N-Benzo[1,3]dioxol-5-yl-3-{5-[1-benzo[1,3]dioxol-5-yl-meth-(Z)-ylidene]-4-oxo-2-thioxo-thiazolidin-3-yl}-propionamide]: 93 µM and 97 µM.
The matching figures for `O=C(CCN1C(=O)/C(=C/c2cccs2)SC1=S)Nc1ccc2ccccc2c1` [N-Naphthalen-2-yl-3-{4-oxo-5-[1-thiophen-2-yl-meth-(Z)-ylidene]-2-thioxo-thiazolidin-3-yl}-propionamide]: greater than 100 µM and greater than 100 µM.
With `CCOc1cc(C=C2SC(=S)N(NC(=O)c3ccccc3O)C2=O)ccc1O` [N-{5-[1-(3-Ethoxy-4-hydroxy-phenyl)-meth-(Z)-ylidene]-4-oxo-2-thioxo-thiazolidin-3-yl}-2-hydroxy-benzamide], the IC50 came out at 38 µM in assay [2] and 70 µM in assay [3].
As for `O=C(NN1C(=O)C(=Cc2ccc(Br)cc2)SC1=S)c1ccccc1O` [N-{5-[1-(4-Bromo-phenyl)-meth-(Z)-ylidene]-4-oxo-2-thioxo-thiazolidin-3-yl}-2-hydroxy-benzamide], the IC50 in assay [2] was found to be 27 µM; in assay [3], 52 µM.

As usually defined, the IC50 is the concentration at which inhibition is half-maximal.
